Data: ChEMBL document CHEMBL3792279, “Design, synthesis, and evaluation of hinge-binder tethered 1,2,3-triazolylsalicylamide derivatives as Aurora kinase inhibitors” (Bioorg Med Chem, 2016)
pIC50: −log10 of the molar value.

Assays:
Aurora kinase A = molecular target: T1, Aurora kinase A (Homo sapiens, UniProt O14965); experiment: Inhibition of human Aurora A using H-LRRASLG as substrate after 2 hrs by HotSpot assay in presence of 33P-ATP and 10 uM ATP
T1 sequence (O14965 whole entry): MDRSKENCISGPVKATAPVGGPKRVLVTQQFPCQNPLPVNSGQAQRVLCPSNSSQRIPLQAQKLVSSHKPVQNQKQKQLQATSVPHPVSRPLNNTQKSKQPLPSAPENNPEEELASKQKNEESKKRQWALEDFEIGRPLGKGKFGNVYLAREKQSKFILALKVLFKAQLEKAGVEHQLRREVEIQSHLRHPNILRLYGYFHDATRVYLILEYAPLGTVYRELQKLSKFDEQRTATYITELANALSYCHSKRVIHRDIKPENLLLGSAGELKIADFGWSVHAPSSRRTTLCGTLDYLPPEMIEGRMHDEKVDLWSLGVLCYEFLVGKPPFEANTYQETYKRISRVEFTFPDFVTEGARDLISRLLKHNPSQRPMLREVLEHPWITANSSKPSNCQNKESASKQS

Aurora kinase B = Aurora kinase B (Homo sapiens, UniProt Q96GD4); experiment: Inhibition of human Aurora B using H-LRRASLG as substrate after 2 hrs by HotSpot assay in presence of 33P-ATP and 10 uM ATP
Chain of Aurora kinase B (Q96GD4 whole entry): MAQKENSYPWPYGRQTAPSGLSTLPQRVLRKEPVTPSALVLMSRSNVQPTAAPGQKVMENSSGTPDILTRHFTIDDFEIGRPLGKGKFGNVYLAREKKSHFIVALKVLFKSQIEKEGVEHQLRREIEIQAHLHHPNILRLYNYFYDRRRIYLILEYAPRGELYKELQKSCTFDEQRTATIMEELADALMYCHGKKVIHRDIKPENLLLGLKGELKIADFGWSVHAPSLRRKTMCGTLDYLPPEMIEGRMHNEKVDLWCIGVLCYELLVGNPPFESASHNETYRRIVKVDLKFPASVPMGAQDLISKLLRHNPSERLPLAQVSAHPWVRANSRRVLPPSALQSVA

pIC50 (Aurora kinase A)	pIC50 (Aurora kinase B)	Compound
6.11	5.23	COC(=O)c1cccc(NC(=O)c2cc(-n3cc(-c4cc(OC)cc(OC)c4)nn3)ccc2O)c1
5.29	4.44	COC(=O)c1cccc(NC(=O)c2cc(-n3cc(CNc4ccccc4)nn3)ccc2O)c1
4.86	4.31	COC(=O)c1cccc(NC(=O)c2cc(-n3cc(CNc4cc(C)[nH]n4)nn3)ccc2O)c1
5.45	4.99	COC(=O)c1cccc(NC(=O)c2cc(-n3cc(CNc4nc5ccccc5o4)nn3)ccc2O)c1
5.53	6.44	COC(=O)c1cccc(NC(=O)c2cc(-n3cc(CCNc4ncnc5ccsc45)nn3)ccc2O)c1
5.22	4.79	COC(=O)c1cccc(NC(=O)c2cc(-n3cc(CNc4cc(C)ccn4)nn3)ccc2O)c1
5.12	4.82	COC(=O)c1cccc(NC(=O)c2cc(-n3cc(CCNc4ncccn4)nn3)ccc2O)c1
5.19	4.49	COC(=O)c1cccc(NC(=O)c2cc(-n3cc(CNc4ccccn4)nn3)ccc2O)c1
6.20	5.66	COC(=O)c1cccc(NC(=O)c2cc(-n3cc(-c4ccc5c(c4)OCO5)nn3)ccc2O)c1
6.22	5.14	COC(=O)c1cccc(NC(=O)c2cc(-n3cc(-c4ccc5nccnc5c4)nn3)ccc2O)c1
6.10	4.70	COC(=O)c1cccc(NC(=O)c2cc(-n3cc(CNc4ncnc5ccsc45)nn3)ccc2O)c1
4.81	4.39	COC(=O)c1cccc(NC(=O)c2cc(-n3cc(CNc4ncccn4)nn3)ccc2O)c1
4.91	4.26	COC(=O)c1cccc(NC(=O)c2cc(-n3cc(CNc4cc(C)on4)nn3)ccc2O)c1
6.55	5.88	COC(=O)c1cccc(NC(=O)c2cc(-n3cc(-c4cccc([N+](=O)[O-])c4)nn3)ccc2O)c1
